Experimental data taken from patent publication US20220127297A1, “Novel Antibacterial 3"-Derivatives Of 4,6-Disubstituted 2,5-Dideoxystreptamine Aminoglycoside Antibiotics” (AGILeBiotics B.V., priority 2018, published 2022).
≈ marks a conversion by molar mass, not a printed value.

Assays:
Assay in all cases: MIC determination at Fidelta, clinical isolates
Assay type in all cases: cell-based
[1] = system: clinical isolates of multidrug-resistant Acinetobacter baumannii (and ATCC17978)
In short: (§1)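 Clinical isolates and ATCC reference strains revived on MH agar, tested by broth microdilution in Mueller Hinton broth. Compounds from 5 mg/mL DMSO stocks, two-fold serial dilutions, final 64-0.125 μg/mL.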

[2] = system: clinical isolates of Vancomycin-resistant Enterococcus faecium (VRE)
In short: as §1

[3] = system: clinical isolates of methicillin-resistant Staphylococcus aureus (MRSA)
In short: as §1

[4] = system: clinical isolates of multidrug-resistant Pseudomonas aeruginosa (and ATCC27853)
In short: as §1

[5] = AB-2017, Bronchial aspirate/CRAB
[6] = AB-2019, Bronchial aspirate/CRAB

SMILES | MIC90 ([1]; A. baumannii ATCC17978 strain) [mg/L] | MIC90 ([1]; AB-1931, Urine/CRAB) [mg/L] | MIC90 ([1]; AB-1932, Urine (catheter)/CRAB) [mg/L] | MIC90 [1, 5] [mg/L] | MIC90 ([1]; AB-2018, Skin/CRAB) [mg/L] | MIC90 [1, 6] [mg/L] | MIC90 ([2]; VRE-2005, Urine) [mg/L] | MIC90 ([2]; VRE-2006, Urine) [mg/L] | MIC90 ([2]; VRE-2007, Urine) [mg/L] | MIC90 ([2]; VRE-2008, Urine) [mg/L] | MIC90 ([2]; VRE-2009, Urine) [mg/L] | MIC90 ([2]; VRE-2010, Urine) [mg/L] | MIC90 ([2]; VRE-2011, Rectum) [mg/L] | MIC90 ([2]; VRE-2012, Rectum) [mg/L] | MIC90 ([2]; VRE-2013, Rectum) [mg/L] | MIC90 ([3]; MRSA-1995, Liquor) [mg/L] | MIC90 ([3]; MRSA-1998, Wound) [mg/L] | MIC90 ([3]; MRSA-1999, Skin) [mg/L] | MIC90 ([3]; MRSA-2003, Wound) [mg/L] | MIC90 ([4]; P. aeruginosa ATCC27853 strain) [mg/L] | also measured
N=C(N)NC1C(O)[C@@H](CO)OC(OC2C(F)[C@H](O[C@H]3OC(CN)[C@@H](O)CC3N)C(N)C[C@H]2NC(=O)[C@@H](O)CCN)[C@@H]1O (some centres unmarked) [ABX5006, Tobra-AHB-F-Gua] | <0.125 | 0.5 (≈ 0.816 µM) | 1 (≈ 1.63 µM) | 0.5 (≈ 0.816 µM) | 1 (≈ 1.63 µM) | 1 (≈ 1.63 µM) | 4 (≈ 6.53 µM) | 32 (≈ 52.2 µM) | 4 (≈ 6.53 µM) | 8 (≈ 13.1 µM) | 16 (≈ 26.1 µM) | 8 (≈ 13.1 µM) | 16 (≈ 26.1 µM) | 4 (≈ 6.53 µM) | 4 (≈ 6.53 µM) | 0.5 (≈ 0.816 µM) | 0.25 (≈ 0.408 µM) | 0.5 (≈ 0.816 µM) | 0.5 (≈ 0.816 µM) | 0.25 (≈ 0.408 µM) | MIC90 ([1]; AB-1964, Blood): 1 mg/L (≈ 1.63 µM); MIC90 ([1]; AB-2025, Skin): 0.5 mg/L (≈ 0.816 µM); MIC90 ([1]; AB-2026, Skin): 1 mg/L (≈ 1.63 µM); MIC90 ([4]; PA-1948, Wound/OXA-2): 0.5 mg/L (≈ 0.816 µM); MIC90 ([4]; PA-1949, Urine/OXA-2): 8 mg/L (≈ 13.1 µM); MIC90 ([4]; PA-1950, Sputum/OXA-2): 1 mg/L (≈ 1.63 µM); MIC90 ([4]; PA-1952, Wound/OXA-2): 4 mg/L (≈ 6.53 µM); MIC90 ([4]; PA-1953, Urine/MDR): 8 mg/L (≈ 13.1 µM); MIC90 ([4]; PA-1954, Sputum/OXA-2): 0.5 mg/L (≈ 0.816 µM); MIC90 ([4]; PA-1967, Blood/VIM): 4 mg/L (≈ 6.53 µM)
N=C(NCCN)NC1C(O)[C@@H](CO)OC(OC2C(F)[C@H](O[C@H]3OC(CN)[C@@H](O)CC3N)C(N)C[C@H]2NC(=O)[C@@H](O)CCN)[C@@H]1O (some centres unmarked) [ABX5020, Tobra-AHB-F-Gua-2-amino-ethyl] | 0.5 (≈ 0.763 µM) | 1 (≈ 1.53 µM) | 1 (≈ 1.53 µM) | 1 (≈ 1.53 µM) | 2 (≈ 3.05 µM) | 2 (≈ 3.05 µM) | – | – | – | – | – | – | – | – | – | – | – | – | – | 0.25 (≈ 0.381 µM) | MIC90 ([4]; PA-1948, Wound/OXA-2): 1 mg/L (≈ 1.53 µM); MIC90 ([4]; PA-1949, Urine/OXA-2): 8 mg/L (≈ 12.2 µM); MIC90 ([4]; PA-1950, Sputum/OXA-2): 1 mg/L (≈ 1.53 µM); MIC90 ([4]; PA-1952, Wound/OXA-2): 8 mg/L (≈ 12.2 µM); MIC90 ([4]; PA-1953, Urine/MDR): 16 mg/L (≈ 24.4 µM); MIC90 ([4]; PA-1954, Sputum/OXA-2): 0.5 mg/L (≈ 0.763 µM)
N=C(NC[C@@H]1CCCN1)NC1[C@@H](O)C(OC2[C@@H](F)[C@H](O[C@H]3OC(CN)[C@@H](O)CC3N)C(N)C[C@H]2NC(=O)[C@@H](O)CCN)O[C@H](CO)[C@H]1O (stereo partly drawn) [ABX5026, Tobra-AHB-F-Gua (S) pyrrolidine-2-yl-methyl] | 0.5 (≈ 0.719 µM) | 1 (≈ 1.44 µM) | 1 (≈ 1.44 µM) | 1 (≈ 1.44 µM) | 1 (≈ 1.44 µM) | 1 (≈ 1.44 µM) | 4 (≈ 5.75 µM) | 8 (≈ 11.5 µM) | 4 (≈ 5.75 µM) | 4 (≈ 5.75 µM) | 8 (≈ 11.5 µM) | 8 (≈ 11.5 µM) | 8 (≈ 11.5 µM) | 4 (≈ 5.75 µM) | 4 (≈ 5.75 µM) | 0.5 (≈ 0.719 µM) | 0.25 (≈ 0.359 µM) | 0.5 (≈ 0.719 µM) | 0.5 (≈ 0.719 µM) | 1 (≈ 1.44 µM) | MIC90 ([1]; AB-1964, Blood): 2 mg/L (≈ 2.87 µM); MIC90 ([1]; AB-2025, Skin): 1 mg/L (≈ 1.44 µM); MIC90 ([1]; AB-2026, Skin): 2 mg/L (≈ 2.87 µM); MIC90 ([4]; PA-1948, Wound/OXA-2): 1 mg/L (≈ 1.44 µM); MIC90 ([4]; PA-1949, Urine/OXA-2): 16 mg/L (≈ 23 µM); MIC90 ([4]; PA-1950, Sputum/OXA-2): 1 mg/L (≈ 1.44 µM); MIC90 ([4]; PA-1952, Wound/OXA-2): 8 mg/L (≈ 11.5 µM); MIC90 ([4]; PA-1953, Urine/MDR): 32 mg/L (≈ 46 µM); MIC90 ([4]; PA-1954, Sputum/OXA-2): 1 mg/L (≈ 1.44 µM); MIC90 ([4]; PA-1967, Blood/VIM): 8 mg/L (≈ 11.5 µM)
N=C(NC[C@@H]1CCNC1)NC1[C@@H](O)C(OC2[C@@H](F)[C@H](O[C@H]3OC(CN)[C@@H](O)CC3N)C(N)C[C@H]2NC(=O)[C@@H](O)CCN)O[C@H](CO)[C@H]1O (stereo partly drawn) [ABX5039, Tobra-AHB-F-Gua (R) pyrrolidine-3-ylmethyl] | 0.5 (≈ 0.719 µM) | 1 (≈ 1.44 µM) | 1 (≈ 1.44 µM) | 1 (≈ 1.44 µM) | 1 (≈ 1.44 µM) | 1 (≈ 1.44 µM) | 4 (≈ 5.75 µM) | 16 (≈ 23 µM) | 4 (≈ 5.75 µM) | 4 (≈ 5.75 µM) | 4 (≈ 5.75 µM) | 8 (≈ 11.5 µM) | 8 (≈ 11.5 µM) | 4 (≈ 5.75 µM) | 4 (≈ 5.75 µM) | 0.5 (≈ 0.719 µM) | 0.25 (≈ 0.359 µM) | 0.25 (≈ 0.359 µM) | 0.5 (≈ 0.719 µM) | 0.5 (≈ 0.719 µM) | MIC90 ([1]; AB-1964, Blood): 1 mg/L (≈ 1.44 µM); MIC90 ([1]; AB-2025, Skin): 1 mg/L (≈ 1.44 µM); MIC90 ([1]; AB-2026, Skin): 2 mg/L (≈ 2.87 µM); MIC90 ([4]; PA-1948, Wound/OXA-2): 1 mg/L (≈ 1.44 µM); MIC90 ([4]; PA-1949, Urine/OXA-2): 8 mg/L (≈ 11.5 µM); MIC90 ([4]; PA-1950, Sputum/OXA-2): 1 mg/L (≈ 1.44 µM); MIC90 ([4]; PA-1952, Wound/OXA-2): 4 mg/L (≈ 5.75 µM); MIC90 ([4]; PA-1953, Urine/MDR): 32 mg/L (≈ 46 µM); MIC90 ([4]; PA-1954, Sputum/OXA-2): 1 mg/L (≈ 1.44 µM); MIC90 ([4]; PA-1967, Blood/VIM): 4 mg/L (≈ 5.75 µM)
NCC[C@H](O)C(=O)N[C@@H]1C[C@H](N)[C@@H](O[C@H]2O[C@H](CN)[C@@H](O)[C@H](O)[C@H]2O)[C@H](O)[C@H]1O[C@H]1O[C@H](CO)[C@@H](O)[C@H](N)[C@H]1O [Amikacin, amikacin, reference compound] | – | – | – | – | – | – | > 64 | > 64 | > 64 | > 54 | > 64 | > 64 | > 64 | > 64 | > 64 | 4 (≈ 6.83 µM) | 4 (≈ 6.83 µM) | 8 (≈ 13.7 µM) | 4 (≈ 6.83 µM) | – | –
